Assay results: patent US10375956B2, “Herbicidally active 2-(substituted-phenyl)-cyclopentane-1,3-dione compounds and derivatives thereof” (Syngenta Limited, priority 2013, dated 2019)

Experiments:
Assay type in all cases: in vivo
Avena fatua (AVEFA) = assay: Test 1 glasshouse assay, post-emergence herbicidal activity; details: 312 h, post-emergence (Example 1B Table 2), after 13 days, read-out: Percentage phytotoxicity AVEFA
Description: (§1) Seeds of a variety of test species are sown in standard soil in pots. After cultivation for one day (pre-emergence) or after 8 days cultivation (post-emergence) under controlled conditions in a glasshouse (at 24/16° C., day/night; 14 hours light; 65% humidity), the plants are sprayed with an aqueous spray solution derived from the formulation of the “technical” (i.e. unformulated) active ingredient in acetone/water (50:50) solution containing 0.5% Tween 20 (polyoxyethylene sorbitan monolaurate, CAS Registry Number 9005-64-5). The test plants are then grown on under controlled conditions in a glasshouse (at 24/16° C., day/night; 14 hours light; 65% humidity) and watered twice daily. After 13 days for pre- or post-emergence, the test is evaluated visually, and an assessed percentage phytotoxicity score is given for each herbicidal application on each plant species (where 100%=total damage to plant; 0%=no damage to plant).
(§2) Lolium perenne (LOLPE), Alopecurus myosuroides (ALOMY), Echinochloa crus-galli (ECHCG), and Avena fatua (AVEFA); these are all grassy monocotyledonous weeds. Cool climate crop plant: Triticum aestivum (TRZAW, winter wheat).

Lolium perenne (LOLPE) = assay: as above; details: 312 h, post-emergence (Example 1B Table 2), after 13 days, read-out: Percentage phytotoxicity LOLPE
Description: as §1, §2

[1] = system: Triticum aestivum (TRZAW, winter wheat); assay: as above; details: 312 h, post-emergence (Example 1B Table 2), after 13 days, crop plant, read-out: Percentage phytotoxicity TRZAW
Description: as §1, §2

[2] = system: Brachiaria decumbens (BRADC); assay: Biological Example 3 glasshouse assay, post-emergence, various adjuvant systems; details: 8 g/ha, 14 DAA
Description: (§3) Post-emergence foliar spray application, 200 L/ha, usually one or two replicates for the weeds (depending on application rate), and two replicates for soybean.
(§4) Standard warm conditions (tropical), in glasshouse. Specifically, the glasshouse bay conditions are 24° C./18° C. day/night; 16/8 hours light/dark; 65% humidity.
(§5) The herbicidal application takes place at the following growth stages for plants which include inter alia one or more of the following plants (usually the herbicidal application takes place on at least the following plants: DIGSA, ELEIN, SETFA, ZEAMX, GLXMA Nikko, and GLXMA TMG133, and often also either BRADC or BRAPP):
Brachiaria decumbens (BRADC)—growth stage (GS) 12 or 13 (or GS 12)—or, if BRADC is not used, then sometimes Brachiaria platyphylla (BRAPP)—growth stage 12 or 13
(§6) Each test compound is applied with one of the following adjuvant systems (all percentages are final concentrations in the aqueous spray mixture):
(§7) Adjuvant system 2: 0.5% v/v Hexamoll™ DINCH**, 1.0% v/v AMS (ammonium sulphate) and 12.5% v/v IPA (isopropyl alcohol).
(§8) Adjuvant system 3: 0.5% v/v tris-(2-ethylhexyl)phosphate (“TEHP”), 1.0% v/v AMS (ammonium sulphate) and 12.5% v/v IPA (isopropyl alcohol).
(§9) Seeds of the weed (including volunteer) plants, typically including inter alia Digitaria sanguinalis (DIGSA), Eleusine indica (ELEIN), Setaria faberi (SETFA), Zea mays (ZEAMX, corn), and sometimes also [either Brachiaria decumbens (BRADC) or Brachiaria platyphylla (BRAPP)], are sown in seed trays (troughs) containing clay loam soil (pH 7.0, 2.2% organic matter, “Trough Mix A”); and soybean seed is sown in pots containing the same soil with 3 soybean seedlings per pot. The plants are sprayed with the test herbicide when they reach the growth stages mentioned above.
(§10) The test herbicidal solutions are prepared by mixing the appropriate aliquots of the test substance(s) and one of the adjuvant systems indicated above *** in deionised water to give the desired treatment concentration.
(§11) The herbicidal application is made as a foliar spray, using a tracksprayer. Following the herbicidal application, the plants are watered twice per day for the duration of the test.
(§12) A visual assessment of the % herbicidal damage is made 7 and 14 Days After herbicide Application (DAA) (or, in a minority of cases, 7 and 15 DAA), and the results are recorded as % visual herbicidal damage where 0%=no damage to plants and 100%=plant totally killed.
Compounds A2 and A7 were tested using the 0.5% v/v Hexamoll™ DINCH™+1.0% v/v AMS+12.5% v/v IPA adjuvant system. Compounds A11, A12, A14, A20 and A21 were tested using the 0.5% v/v tris-(2-ethylhexyl)phosphate (“TEHP”)+1.0% v/v AMS+12.5% v/v IPA adjuvant system. […]

Eleusine indica (ELEIN) = assay: as above; details: 8 g/ha; for percentage control of Eleusine indica: adjuvant 0.5% v/v TEHP + 1.0% v/v AMS + 12.5% v/v IPA
Description: as §3, §4, §5
Eleusine indica (ELEIN)—growth stage 12 or 13
as §6, §7, §8, §9, §10, §11, §12
(§13) Compounds A2 and A7 were tested using the 0.5% v/v Hexamoll™ DINCH™+1.0% v/v AMS+12.5% v/v IPA adjuvant system. Compounds A11, A12, A14, A20 and A21 were tested using the 0.5% v/v tris-(2-ethylhexyl)phosphate (“TEHP”)+1.0% v/v AMS+12.5% v/v IPA adjuvant system.
(§14) The percentages of herbicidal damage/plant control, at 14 Days After herbicide Application (DAA) (or, in some cases, at 15 DAA), for the Compounds tested and for some of the plants tested, were in the following percentage ranges. For the tested compounds, the phytotoxicity results shown herein are generally the average of 2 or 3 repetitions (for the grassy weeds including corn) or the average of 2 repetitions (for soybean for most of the tested compounds). However, for Compound A2 on soybean there was 1 repetion only.

Setaria faberi (SETFA) = assay: as above; details: 8 g/ha; for percentage control of Setaria faberi: adjuvant 0.5% v/v TEHP + 1.0% v/v AMS + 12.5% v/v IPA
Description: as §3, §4, §5
Setaria faberi (SETFA)—growth stage 12 or 13
as §6, §7, §8, §9, §10, §11, §12, §13, §14

[3] = system: Glycine max (GLXMA, soybean) cultivar TMG133 (Roundup Ready glyphosate-tolerant); assay: as above; details: 120 g/ha, crop
Description: as §3, §4, §5
Glycine max (GLXMA, soybean) cultivar “TMG133”—which is Roundup Ready™ glyphosate-tolerant soybean cultivar TMG133 (typically available from Monsanto in Brazil)—growth stage: 1st trifoliate.
as §6, §7, §8, §9, §10, §11, §12, §13, §14
Glycine max (GLXMA, soybean) cultivar “TMG133” is Roundup Ready™ glyphosate-tolerant soybean cultivar TMG133, and is typically available from Monsanto in Brazil.

[4] = 14 or 15 DAA, adjuvant 0.5% v/v TEHP + 1.0% v/v AMS + 12.5% v/v IPA
[5] = 14 DAA, adjuvant 0.5% v/v Hexamoll DINCH + 1.0% v/v AMS + 12.5% v/v IPA

| SMILES | pest or weed control at 62.5 g/ha (Avena fatua (AVEFA)) | pest or weed control at 250 g/ha (Avena fatua (AVEFA)) | pest or weed control at 62.5 g/ha (Lolium perenne (LOLPE)) | pest or weed control at 250 g/ha (Lolium perenne (LOLPE)) | plant injury at 62.5 g/ha [1] | plant injury at 250 g/ha [1] | also measured |
| --- | --- | --- | --- | --- | --- | --- | --- |
| C#CCC1CC(=O)C(c2c(C)cc(-c3ncc(Cl)cc3F)cc2C)C1=O (centres unmarked) [Compound A3] | 90% | 100% | 100% | 100% | 90% | 90% |  |
| C#CCC1CC(=O)C(c2c(CC)cc(C)cc2CC)C1=O (centres unmarked) [Compound A25, 2-(2,6-diethyl-4-methyl-phenyl)-4-(prop-2-ynyl)-cyclopentane-1,3-dione] | 100% | 100% | 100% | 100% | 30% | 60% |  |
| C#CCC1CC(=O)C(c2c(Cl)cc(-c3ccc(Cl)cn3)cc2OC)C1=O (centres unmarked) [Compound A10] | 100% | 100% | 100% | 100% | 90% | 90% |  |
| C#CCC1CC(=O)C(c2c(Cl)cc(-c3ccc(Cl)cc3)cc2OC)C1=O (centres unmarked) [Compound A11, 2-[2-chloro-4-(4-chlorophenyl)-6-methoxyphenyl]-4-prop-2-ynylcyclopentane-1,3-dione] |  |  |  |  |  |  | percentage control of Brachiaria decumbens (BRADC) ([2]; adjuvant 0.5% v/v TEHP + 1.0% v/v AMS + 12.5% v/v IPA): 99%; percentage control of Eleusine indica (Eleusine indica (ELEIN); 14 DAA): 95%; percentage control of Setaria faberi (Setaria faberi (SETFA); 14 DAA): 98%; percentage phytotoxicity on Glycine max cultivar TMG133 ([3]; 14 DAA, adjuvant 0.5% v/v TEHP + 1.0% v/v AMS + 12.5% v/v IPA): 12.5% |
| C#CCC1C(=O)C(c2c(C)cc(C)cc2C)C(=O)C1CC#C (centres unmarked) [Compound A42] |  | 80% |  | 100% |  | 20% |  |
| C#CCC1CC(=O)C(c2c(F)cc(-c3ccc(Cl)cc3)cc2OC)C1=O (centres unmarked) [Compound A14] |  | 100% |  | 80% |  | 70% | percentage control of Eleusine indica (Eleusine indica (ELEIN); 15 DAA): 20%; percentage control of Setaria faberi (Setaria faberi (SETFA); 15 DAA): 95%; percentage phytotoxicity on Glycine max cultivar TMG133 ([3]; 15 DAA, adjuvant 0.5% v/v TEHP + 1.0% v/v AMS + 12.5% v/v IPA): 5% |
| C#CCC1CC(=O)C(c2c(F)cc(-c3ccc(F)cc3)cc2OC)C1=O (centres unmarked) [Compound A20, 2-[2-fluoro-4-(4-fluorophenyl)-6-methoxyphenyl]-4-prop-2-ynylcyclopentane-1,3-dione] |  |  |  |  |  |  | percentage control of Eleusine indica (Eleusine indica (ELEIN); 14 or 15 DAA): 15%; percentage control of Setaria faberi (Setaria faberi (SETFA); 14 or 15 DAA): 90%; percentage phytotoxicity on Glycine max cultivar TMG133 [3, 4]: 10% |
| C#CCC1CC(=O)C(c2c(Cl)cc(-c3ccc(F)c(F)c3)cc2OC)C1=O (centres unmarked) [Compound A13] | 100% | 100% | 90% | 100% | 80% | 80% |  |
| C#CCC1CC(=O)C(c2c(C)cc(C)cc2C)C1=O (centres unmarked) [Compound A23] | 90% | 90% | 90% | 100% | 50% | 70% |  |
| C#CCC1CC(=O)C(c2c(Cl)cc(-c3ccc(F)cc3)cc2OC)C1=O (centres unmarked) [Compound A7] |  |  |  |  |  |  | percentage control of (phytotoxicity on) Brachiaria decumbens (BRADC) ([2]; adjuvant 0.5% v/v Hexamoll DINCH + 1.0% v/v AMS + 12.5% v/v IPA): 95%; percentage control of (phytotoxicity on) Eleusine indica (ELEIN) (Eleusine indica (ELEIN); [5]): 91.7%; percentage control of (phytotoxicity on) Setaria faberi (SETFA) (Setaria faberi (SETFA); [5]): 91.7%; percentage phytotoxicity on Glycine max cultivar TMG133 [3, 5]: 0% |
| C#CCC1CC(=O)C(c2c(F)cc(-c3ccc(Cl)cn3)cc2Cl)C1=O (centres unmarked) [Compound A8] | 90% | 100% | 70% | 100% | 80% | 80% |  |
| C#CCC1CC(=O)C(c2c(F)cc(-c3ccc(Cl)cc3)cc2Cl)C1=O (centres unmarked) [Compound A6, 2-[2-chloro-4-(4-chlorophenyl)-6-fluorophenyl]-4-prop-2-ynylcyclopentane-1,3-dione] |  | 90% |  | 80% |  | 80% |  |
| C#CCC1CC(=O)C(c2c(F)cc(-c3ccc(F)cc3F)cc2OC)C1=O (centres unmarked) [Compound A21] |  |  |  |  |  |  | percentage control of Eleusine indica (Eleusine indica (ELEIN); 14 or 15 DAA): 25%; percentage control of Setaria faberi (Setaria faberi (SETFA); 14 or 15 DAA): 85%; percentage phytotoxicity on Glycine max cultivar TMG133 [3, 4]: 5% |
